Where “and” joins values, the source holds several entries; their conditions need not be identical. Equal values may be shown once. ± gives the expanded uncertainty stated by the source.
[I][Sm]([I])[I] [samarium triiodide]
Crystal
Details | vapor or sublimation pressure
789 K | 0.00017 ± 3e-05 kPa
797 K | 0.00024 ± 3e-05 kPa
799 K | 0.0002 ± 3e-05 kPa
801 K | 0.0002 ± 2e-05 kPa
805 K | 0.00034 ± 5e-05 kPa
807 K | 0.00029 ± 6e-05 kPa
808 K | 0.00025 ± 5e-05 kPa
814 K | 0.00051 ± 7e-05 kPa
815 K | 0.00034 ± 7e-05 kPa
819 K | 0.00051 ± 6e-05 kPa
823 K | 0.00071 ± 8e-05 kPa and 0.00047 ± 6e-05 kPa
824 K | 0.00064 ± 7e-05 kPa
832 K | 0.00067 ± 9e-05 kPa
833 K | 0.00088 ± 0.00011 kPa and 0.00101 ± 0.00021 kPa
840 K | 0.00111 ± 0.00024 kPa and 0.00098 ± 0.00012 kPa
843 K | 0.00145 ± 0.00032 kPa
849 K | 0.00148 ± 0.00033 kPa and 0.00135 ± 0.0003 kPa
852 K | 0.00212 ± 0.0005 kPa
856 K | 0.00189 ± 0.00045 kPa
857 K | 0.00168 ± 0.00038 kPa
863 K | 0.00236 ± 0.00059 kPa
867 K | 0.00236 ± 0.00058 kPa
868 K | 0.00276 ± 0.00068 kPa
876 K | 0.00307 ± 0.00077 kPa

[I][Sm][I] [samarium diiodide]
Liquid
Details | vapor or sublimation pressure
1048 K | 0.00013 ± 2e-05 kPa
1051 K | 0.00016 ± 2e-05 kPa
1064 K | 0.00021 ± 2e-05 kPa
1065 K | 0.00019 ± 2e-05 kPa
1068 K | 0.00024 ± 3e-05 kPa
1069 K | 0.00024 ± 3e-05 kPa
1072 K | 0.00021 ± 3e-05 kPa
1074 K | 0.00027 ± 4e-05 kPa
1076 K | 0.00027 ± 3e-05 kPa and 0.00024 ± 3e-05 kPa
1078 K | 0.00029 ± 4e-05 kPa
1080 K | 0.0004 ± 4e-05 kPa
1082 K | 0.00032 ± 5e-05 kPa
1085 K | 0.00035 ± 4e-05 kPa
1086 K | 0.00035 ± 4e-05 kPa
1088 K | 0.00048 ± 5e-05 kPa
1089 K | 0.00035 ± 4e-05 kPa
1092 K | 0.00043 ± 5e-05 kPa and 0.00035 ± 4e-05 kPa
1093 K | 0.00043 ± 4e-05 kPa
1094 K | 0.00043 ± 5e-05 kPa
1096 K | 0.00048 ± 6e-05 kPa
1098 K | 0.00045 ± 5e-05 kPa
1100 K | 0.00045 ± 5e-05 kPa
1101 K | 0.00053 ± 6e-05 kPa
1102 K | 0.00075 ± 8e-05 kPa
1103 K | 0.00056 ± 7e-05 kPa
1104 K | 0.00059 ± 6e-05 kPa
1106 K | 0.00056 ± 6e-05 kPa
1108 K | 0.00064 ± 7e-05 kPa and 0.00051 ± 5e-05 kPa
1110 K | 0.00061 ± 6e-05 kPa
1111 K | 0.00064 ± 7e-05 kPa
1113 K | 0.00064 ± 7e-05 kPa
1114 K | 0.00077 ± 8e-05 kPa
1118 K | 0.00069 ± 9e-05 kPa and 0.00075 ± 9e-05 kPa and 0.00064 ± 8e-05 kPa
1120 K | 0.0008 ± 8e-05 kPa
1121 K | 0.00117 ± 0.00024 kPa
1124 K | 0.00093 ± 0.00012 kPa and 0.00096 ± 0.00012 kPa and 0.00085 ± 0.00011 kPa
1125 K | 0.00085 ± 0.00011 kPa
1126 K | 0.00091 ± 9e-05 kPa
1128 K | 0.00139 ± 0.0003 kPa and 0.00085 ± 9e-05 kPa
1129 K | 0.00107 ± 0.00022 kPa and 0.00096 ± 0.0001 kPa
1133 K | 0.00123 ± 0.00026 kPa and 0.00104 ± 0.00022 kPa
1134 K | 0.00107 ± 0.00022 kPa
1135 K | 0.00115 ± 0.00027 kPa
1136 K | 0.00134 ± 0.00029 kPa
1138 K | 0.00112 ± 0.00023 kPa
1139 K | 0.00123 ± 0.00027 kPa
1140 K | 0.00176 ± 0.00041 kPa
1141 K | 0.00128 ± 0.00027 kPa
1142 K | 0.00155 ± 0.00034 kPa and 0.00128 ± 0.00027 kPa
1144 K | 0.00144 ± 0.00032 kPa
1145 K | 0.0016 ± 0.00035 kPa and 0.00166 ± 0.00037 kPa
1148 K | 0.00144 ± 0.00031 kPa
1150 K | 0.0016 ± 0.00037 kPa
1151 K | 0.0016 ± 0.00036 kPa
1152 K | 0.00198 ± 0.00046 kPa
1153 K | 0.00182 ± 0.00043 kPa
1154 K | 0.00203 ± 0.00052 kPa
1155 K | 0.00214 ± 0.00052 kPa
1158 K | 0.00198 ± 0.00048 kPa and 0.00192 ± 0.00046 kPa and 0.00187 ± 0.00045 kPa
1159 K | 0.00262 ± 0.00064 kPa and 0.00203 ± 0.00048 kPa
1160 K | 0.0023 ± 0.00055 kPa
1161 K | 0.0024 ± 0.00057 kPa and 0.00219 ± 0.00052 kPa
1162 K | 0.00208 ± 0.00048 kPa and 0.00203 ± 0.00047 kPa
1164 K | 0.00262 ± 0.00063 kPa
1167 K | 0.00246 ± 0.00062 kPa
1168 K | 0.0024 ± 0.0006 kPa
1169 K | 0.00278 ± 0.0007 kPa and 0.00288 ± 0.00073 kPa
1170 K | 0.00272 ± 0.00069 kPa
1171 K | 0.00347 ± 0.0009 kPa and 0.00251 ± 0.00063 kPa and 0.00246 ± 0.00061 kPa
1173 K | 0.0031 ± 0.00079 kPa
1177 K | 0.00331 ± 0.00085 kPa [middle of 4 runs]
1178 K | 0.00326 ± 0.00087 kPa
1179 K | 0.00288 ± 0.00071 kPa and 0.00358 ± 0.00092 kPa and 0.00294 ± 0.00073 kPa
1181 K | 0.00368 ± 0.00095 kPa
1183 K | 0.00449 ± 0.0012 kPa
1185 K | 0.00363 ± 0.00094 kPa
1186 K | 0.00368 ± 0.00095 kPa [middle of 5 runs]
1187 K | 0.00401 ± 0.001 kPa
1188 K | 0.00427 ± 0.0011 kPa
1189 K | 0.00336 ± 0.00085 kPa and 0.00331 ± 0.00083 kPa
1195 K | 0.00443 ± 0.0012 kPa
1196 K | 0.00507 ± 0.0015 kPa

Source: the NIST ThermoML archive (doi:10.1021/je050112b)
